Data: publication PMC12210654, “Palazestrant, a novel oral Complete Estrogen Receptor Antagonist (CERAN) and Selective Estrogen Receptor Degrader (SERD), in patients with ER+/HER2− advanced or metastatic breast cancer: phase 1/2 study results” (Breast Cancer Research : BCR, 2025)
Several values for one entry are separate records, joined by “and”; a condition that tells them apart may be missing. Equal values may be shown once. Entries after “also recorded” stand apart in the source; their conditions may differ. Read-outs that look alike come from different tables or passages of the source.

How the values were obtained:
ERα = ERα immunohistochemistry (Allred score) of tumor samples; type: in vivo, human; settings: cycle 3 day 1 (N = 12), all dose levels; baseline 6.67 (N = 18); P = 0.13
Protocol: All immunohistochemistry analyses from tumor samples were performed at ICON Central Laboratories (Farmingdale, NY, USA) using the Ventana® BenchMark ULTRA™ automated staining instrument (Oro Valley, AZ, USA). Positive- and negative-control tissue and negative reagent controls were run for each marker, as well as low-ER controls for each run. Estrogen receptor levels were estimated as the number of positive tumor nuclei divided by the total number of tumor nuclei, expressed as a percentage for each receptor type. Evaluation of Ki67 was performed in accordance with Ki67 Working Group recommendations: 1) only nuclear staining was assessed as positive; 2) in cases of tumor heterogeneity (hot spots), 2 counts were performed and the average was reported; and 3) lymphocyte-rich areas were avoided when possible. Presence of activating ESR1 mutations (amino acid regions 370–381, 460–473, and 529–538) and their mutant allele fractions (MAFs) were determined in cell-free DNA (cfDNA), collected at baseline and at 8 weeks on treatment using the SafeSEQ Breast Cancer Panel (Sysmex Inostics, Baltimore, MD, USA).
In patients who underwent biomarker testing, samples collected on cycle 3 day 1 of treatment across all dose levels were compared to baseline samples to assess changes during treatment. […]

[1] = system: ER+/HER2− advanced or metastatic breast cancer; test: Antitumor activity: RECIST v1.1 response, CBR, PFS, duration of treatment; type: in vivo, human
Source text: Key efficacy end points included assessment of clinical response according to RECIST v1.1; the clinical benefit rate (CBR), defined as the proportion of patients who achieved a complete response (CR), achieved a partial response (PR), or had stable disease (SD) for at least 24 weeks; and progression-free survival (PFS), defined as the time from the date of the first dose to disease progression or death. Biomarker assessments included changes from baseline in circulating tumor DNA (e.g., ESR1 variants) and tumor tissue biomarkers (ERα and Ki67).
All DLT analyses (phase 1a) were performed in patients enrolled in the study during cycle 1 and who either received 75% of the planned palazestrant doses or experienced a DLT during cycle 1. All PK analyses were performed in patients who received at least 1 dose of palazestrant and had adequate postbaseline PK samples for characterization of PK parameters. All safety analyses were performed and PFS assessed in patients who received at least 1 dose of palazestrant. Clinical response (CR or PR) was assessed in patients who received at least 1 cycle of palazestrant, had measurable disease at baseline, and had at least 1 postbaseline tumor assessment. CBR was assessed in patients who received at least 1 cycle of palazestrant, had at least 1 postbaseline tumor assessment, and started their first dose at least 24 weeks before data cutoff. Patients who discontinued study treatment without radiographic progression within 24 weeks from the first dose were not included in the CBR analysis. PK parameters were estimated using conventional noncompartmental methods. For CBR, estimates were accompanied by 2-sided 95% confidence intervals (95% CIs). For PFS, Kaplan–Meier analyses were used to determine medians, event-free rates, and 95% CIs. For all other outcomes, categorical data were analyzed using frequencies and percentages, and continuous data were analyzed using means (standard deviation) or medians (range), as appropriate.

[2] = design: method as in PMID 38102750; settings: preclinical; cited from earlier work
[3] = system: ER+/HER2− advanced or metastatic breast cancer; design: method as in ref 41 = [41]; 41. Lin NU, Borges VF, Patel MR, Okera M, Meisel J, Wesolowski R, et al. Results from the phase I/II study of OP-1250, an oral complete estrogen receptor (ER) antagonist (CERAN) and selective ER degra; settings: cited from earlier work
[4] = 60 mg/day, measurable disease (n = 26)
[5] = 120 mg/day, 66 patients with measurable disease
[6] = 120 mg/day, all patients (n = 86)
[7] = 120 mg/day, patients with ESR1 mutation at baseline (n = 36)
[8] = second- or third-line subanalysis, cancers with ESR1 mutations

Compound: CCCN1CC(Oc2ccc([C@@H]3c4[nH]c5ccccc5c4C[C@@H](C)N3CC(C)(C)F)cc2)C1 [palazestrant, Palazestrant]
- ERα Allred score on treatment (ERα): 5.17
- best response observed in dose cohorts ([1]; 60 mg/day and 120 mg/day dose cohorts): Confirmed partial responses; also recorded: confirmed PR
- clinical benefit rate (CBR) ([1]; 60 mg/day, 13 patients with cancers with ESR1 mutations): 23.1%
- clinical benefit rate (CBR) ([1]; 60 mg/day, all evaluable patients (n = 26)): 19% and 19.2%
- confirmed PRs [1, 4]: 7.7%
- total PRs [1, 4]: 11.5%
- unconfirmed PR [1, 4]: 3.8%
- patients remaining on treatment for ≥ 1 year ([1]; 120 mg/day (n = 86)): 7.0%
- patients with a > 30% reduction in tumor size ([1]; 120 mg/day, 8/64): 12.5%
- patients with a reduction in tumor size (percentage change less than zero) ([1]; 120 mg/day, 25/64): 39.1%
- patients remaining on treatment for ≥ 6 months ([1]; 120 mg/day, 32/86): 37.2%
- confirmed PRs [1, 5]: 4.5%
- confirmed PRs including one cPR after the data cutoff date [1, 5]: 6.0%
- total PRs [1, 5]: 7.6%
- unconfirmed PRs [1, 5]: 3.0%
- clinical benefit rate (CBR) ([1]; 120 mg/day, all evaluable patients (n = 70)): 46% and 45.7%
- 6-month PFS rate [1, 6]: 39%
- median progression-free survival (95% CI) [1, 6]: 4.8 months
- CBR in patients who had a reduction in ESR1 mutations ([1]; 120 mg/day, ctDNA available, 8/11): 73%
- CBR in patients who did not have a reduction in ESR1 mutations ([1]; 120 mg/day, ctDNA available, 8/32): 25%
- 6-month PFS rate [1, 7]: 47%
- median progression-free survival (95% CI) [1, 7]: 5.6 months
- clinical benefit rate (CBR) ([1]; 120 mg/day, patients with cancers with ESR1 mutations (n = 29)): 58.6%
- pharmacokinetics relative to fulvestrant and elacestrant [2]: superior pharmacokinetics
- median PFS ([3]; 49 patients, second- or third-line therapy with or without prior chemotherapy): 7.2 months
- CBR ([3]; 49 patients, second- or third-line therapy, overall): 48%
- CBR [3, 8]: 59%
- PFS [3, 8]: 7.3 months
